Experimental data as given in PubChem BioAssay AID2060609 (Molecular Pharmacology Branch, DTP, NCI, 2025).
Where “and” joins values, the source holds several entries; their conditions need not be identical. Equal entries are not always repeated.

Tested on: 855422-203-R-J1-PDC complex spheroids, viability
Assay: Anticancer human tumor 855422-203-R-J1-PDC patient-derived bladder carcinoma cell line growth inhibition [CLK]
Settings: for viability, T/C: stronger effect = lower value; active = viability on the fitted dose curve at most 10% of control; inactive = the rest
Summary of the method: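 Multi-cell-type spheroids combined patient-derived tumor cells with HUVEC endothelial cells and human mesenchymal stem cells. Paired agents were dosed in half-log steps down from about clinical Cmax, or from 10 microM where Cmax was unknown.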

[1] = curve of first compound, second compound 0.0316 µM
[2] = curve of first compound, second compound 0.1 µM
[3] = curve of first compound, second compound 0.316 µM
[4] = curve of first compound, second compound 1 µM
[5] = curve of first compound, second compound 3.16 µM
[6] = curve of first compound, second compound 10 µM
[7] = second compound 0.0316 µM, first compound 0.0316 µM
[8] = second compound 0.0316 µM, first compound 0.1 µM
[9] = second compound 0.0316 µM, first compound 0.316 µM
[10] = second compound 0.0316 µM, first compound 1 µM
[11] = second compound 0.0316 µM, first compound 3.16 µM
[12] = second compound 0.0316 µM, first compound 10 µM
[13] = second compound 0.1 µM, first compound 0.0316 µM
[14] = second compound 0.1 µM, first compound 0.1 µM
[15] = second compound 0.1 µM, first compound 0.316 µM
[16] = second compound 0.1 µM, first compound 1 µM
[17] = second compound 0.1 µM, first compound 3.16 µM
[18] = second compound 0.1 µM, first compound 10 µM
[19] = second compound 0.316 µM, first compound 0.0316 µM
[20] = second compound 0.316 µM, first compound 0.1 µM
[21] = second compound 0.316 µM, first compound 0.316 µM
[22] = second compound 0.316 µM, first compound 1 µM
[23] = second compound 0.316 µM, first compound 3.16 µM
[24] = second compound 0.316 µM, first compound 10 µM
[25] = second compound 1 µM, first compound 0.0316 µM
[26] = second compound 1 µM, first compound 0.1 µM
[27] = second compound 1 µM, first compound 0.316 µM
[28] = second compound 1 µM, first compound 1 µM
[29] = second compound 1 µM, first compound 3.16 µM
[30] = second compound 1 µM, first compound 10 µM
[31] = second compound 3.16 µM, first compound 0.0316 µM
[32] = second compound 3.16 µM, first compound 0.1 µM
[33] = second compound 3.16 µM, first compound 0.316 µM
[34] = second compound 3.16 µM, first compound 1 µM
[35] = second compound 3.16 µM, first compound 3.16 µM
[36] = second compound 3.16 µM, first compound 10 µM
[37] = second compound 10 µM, first compound 0.0316 µM
[38] = second compound 10 µM, first compound 0.1 µM
[39] = second compound 10 µM, first compound 0.316 µM
[40] = second compound 10 µM, first compound 1 µM
[41] = second compound 10 µM, first compound 3.16 µM
[42] = second compound 10 µM, first compound 10 µM
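Note: spheroids exposed to drugs for seven days before readout.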
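Throughout, for viability, T/C: 100% = DMSO vehicle control wells.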

CCCS(=O)(=O)Nc1ccc(F)c(C(=O)c2c[nH]c3ncc(-c4ccc(Cl)cc4)cc23)c1F + CN1CCN(c2cc(C(=O)Nc3cc4cc(-c5cnn(C)c5)ccc4cn3)ccn2)CC1
< 31.6 nM: IC50 [3] | IC50 [4] | IC50 [5] | IC50 [6]
4790 nM: IC50 [1]
active: viability, T/C [12] 3.42% | viability, T/C [18] 2.76% | viability, T/C [19] 6.38% | viability, T/C [20] 8.19% | viability, T/C [21] 9.52% | viability, T/C [22] 7.73% | viability, T/C [23] 6.35% | viability, T/C [24] 1.15% | viability, T/C [25] 0.16% | viability, T/C [26] 0.18% | viability, T/C [27] 0.46% | viability, T/C [28] 0.19% | viability, T/C [29] 0.19% | viability, T/C [30] 0.08% | viability, T/C [31] 0.34% | viability, T/C [32] 0.68% | viability, T/C [33] 0.32% | viability, T/C [34] 0.46% | viability, T/C [35] 1.09% | viability, T/C [36] 0.77% | viability, T/C [37] 0.23% | viability, T/C [38] 0.51% | viability, T/C [39] 0.21% | viability, T/C [40] 0.35% | viability, T/C [41] 0.5% | viability, T/C [42] 0.29%
5020 nM: IC50 [2]
inactive: viability, T/C [7] 83.9% | viability, T/C [8] 88.1% | viability, T/C [9] 103% | viability, T/C [10] 106% | viability, T/C [11] 76.5% | viability, T/C [13] 74.2% | viability, T/C [14] 85.5% | viability, T/C [15] 87.9% | viability, T/C [16] 86.5% | viability, T/C [17] 81.8%

C=C(F)C(=O)N1CCN(c2nc(OCC3CCCN3C)nc3c2CCN(c2cccc4cccc(Cl)c24)C3)CC1CC#N (configuration not stated) + CNC(=O)c1ccc(Nc2nc(OC3CCCC3)c3c(-c4ccc5nc(C)oc5c4)c[nH]c3n2)c(OC)c1
2500 nM: IC50 [1]
active: viability, T/C [12] 0.16% | viability, T/C [18] 0.11% | viability, T/C [23] 10.1% | viability, T/C [24] 0.07% | viability, T/C [29] 8.14% | viability, T/C [30] 0.07% | viability, T/C [35] 9.57% | viability, T/C [36] 1.06% | viability, T/C [42] 8.64%
inactive: viability, T/C [7] 83.1% | viability, T/C [8] 88.6% | viability, T/C [9] 81.8% | viability, T/C [10] 132% | viability, T/C [11] 38.1% | viability, T/C [13] 24.2% | viability, T/C [14] 21% | viability, T/C [15] 23.7% | viability, T/C [16] 27.5% | viability, T/C [17] 10.2% | viability, T/C [19] 16.6% | viability, T/C [20] 19.6% | viability, T/C [21] 19.9% | viability, T/C [22] 18.7% | viability, T/C [25] 21.5% | viability, T/C [26] 15.8% | viability, T/C [27] 19.4% | viability, T/C [28] 18.6% | viability, T/C [31] 18.5% | viability, T/C [32] 14.9% | viability, T/C [33] 14.8% | viability, T/C [34] 20.5% | viability, T/C [37] 18.1% | viability, T/C [38] 21.6% | viability, T/C [39] 21% | viability, T/C [40] 16.9% | viability, T/C [41] 7.87%
< 31.6 nM: IC50 [2] | IC50 [3] | IC50 [4] | IC50 [5] | IC50 [6]

COc1cccc2c1C(=O)c1c(O)c3c(c(O)c1C2=O)CC(O)(C(=O)CO)CC3OC1CC(N)C(O)C(C)O1 (configuration not stated) + CN1CCN(c2cc(C(=O)Nc3cc4cc(-c5cnn(C)c5)ccc4cn3)ccn2)CC1
< 31.6 nM: IC50 [1] | IC50 [2] | IC50 [3] | IC50 [4] | IC50 [5] | IC50 [6]
active: viability, T/C [7] 8.97% | viability, T/C [8] 3.16% | viability, T/C [9] 0.95% | viability, T/C [10] 0.46% | viability, T/C [11] 0.59% | viability, T/C [12] 1.01% | viability, T/C [13] 8.75% | viability, T/C [14] 1.14% | viability, T/C [15] 0.71% | viability, T/C [16] 1.31% | viability, T/C [17] 0.35% | viability, T/C [18] 0.34% | viability, T/C [19] 1.19% | viability, T/C [20] 1.5% | viability, T/C [21] 0.36% | viability, T/C [22] 0.28% | viability, T/C [23] 0.35% | viability, T/C [24] 0.27% | viability, T/C [25] 0.21% | viability, T/C [26] 0.29% | viability, T/C [27] 0.23% | viability, T/C [28] 0.31% | viability, T/C [29] 0.39% | viability, T/C [30] 0.81% | viability, T/C [31] 0.29% | viability, T/C [32] 0.57% | viability, T/C [33] 0.22% | viability, T/C [34] 0.22% | viability, T/C [35] 0.42% | viability, T/C [36] 0.22% | viability, T/C [37] 0.09% | viability, T/C [38] 0.17% | viability, T/C [39] 1.68% | viability, T/C [40] 0.13% | viability, T/C [41] 0.76% | viability, T/C [42] 1.02%

C#Cc1c(F)ccc2cc(O)cc(-c3ncc4c(N5CC6CCC(C5)N6)nc(OCC56CCCN5CC(F)C6)nc4c3F)c12 (configuration not stated)
inactive: viability, T/C (compound 0.0316 µM) 118% and 106% | viability, T/C (compound 0.1 µM) 92.7% and 95.3% | viability, T/C (compound 0.316 µM) 117% and 113% | viability, T/C (compound 1 µM) 114% and 97.7% | viability, T/C (compound 3.16 µM) 119% and 104% | viability, T/C (compound 10 µM) 98.7% and 112%
> 10000 nM: IC50 (curve of compound)

CC1(C)CCC(CN2CCN(c3ccc(C(=O)NS(=O)(=O)c4ccc(NCC5CCOCC5)c([N+](=O)[O-])c4)c(Oc4cnc5[nH]ccc5c4)c3)CC2)=C(c2ccc(Cl)cc2)C1
active: viability, T/C (compound 10 µM) 1.83% and 3.19%
6140 nM and 6390 nM: IC50 (curve of compound)
inactive: viability, T/C (compound 0.0316 µM) 107% and 106% | viability, T/C (compound 0.1 µM) 90.2% and 119% | viability, T/C (compound 0.316 µM) 117% and 124% | viability, T/C (compound 1 µM) 103% and 118% | viability, T/C (compound 3.16 µM) 159% and 150%

O=C(c1cc(Cc2n[nH]c(=O)c3ccccc23)ccc1F)N1CCN(C(=O)C2CC2)CC1
> 10000 nM: IC50 (curve of compound)
inactive: viability, T/C (compound 0.0316 µM) 118% and 121% | viability, T/C (compound 0.1 µM) 91.3% and 115% | viability, T/C (compound 0.316 µM) 110% and 104% | viability, T/C (compound 1 µM) 112% and 120% | viability, T/C (compound 3.16 µM) 119% and 130% | viability, T/C (compound 10 µM) 101% and 138%
